Test results reported in patent US20230278984A1 (Global Blood Therapeutics, Inc., priority 2020, published 2023).

Target: T1, Human pyruvate kinase R (PKR) (Homo sapiens, UniProt P30613)
T1 construct: Human pyruvate kinase R (PKR), residues 14-574; 6x-His (N, cleaved yes); 8x-Arg (N, cleaved yes); SUMO (N, cleaved yes); host or cells: E. coli
Test: Biochemical assay for activation of pyruvate kinase R (Kinase-Glo luminescence measurement of ATP generation)
Settings: for AC50: PKR biochemical assay, 0.1 nM PKR, 0.3 mM ADP, 2 mM FBP, 0.1 mM PEP; for Emax: maximal activation level relative to the activation level achieved by the literature compound AG-348 @ 10 μM
Experimental: Human pyruvate kinase R (PKR), residues 14-574, and human pyruvate kinase M2, residues 1-531, were cloned into expression plasmids and obtained from ATUM Bio (Newark, Calif.). Proteins were translated as fusions with 6×-His, 8×-Arg, and SUMO at the N-terminus. A third construct of human PKR was truncated, residues 50-574, and similarly cloned for use in crystallography experiments. All proteins were cloned, expressed in E. coli, and purified using similar protocols. Cells were grown at 30° C. in Luria-Bertani broth supplemented with 0.4% glucose to OD600=0.8 and induced with 0.4 mM IPTG at 16° C. for 18 hours. Cells were harvested by centrifugation, resuspended in 50 mM potassium phosphate pH 8.0, 500 mM NaCl, 25 mM imidazole pH 8.0, and 3 mM (3-mercaptoethanol. Cells were lysed using a LM20 microfluidizer from Microfluidics (Westwood, Mass.). The crude lysate was immediately supplemented with 0.2 mM phenylmethylsulfonyl fluoride (PMSF) and centrifuged at 20,000 g for 20 minutes. The soluble fraction was subsequently incubated with 2 mL Ni-NTA (GE Healthcare) per 1,000 ODs for 1 hour at 4° C. Following incubation with the Ni-NTA resin, lysate was removed by pelleting resin at 2,500 g for 3 minutes and washed 3 times with 9 bed volumes of 50 mM potassium phosphate pH 8.0, 500 mM NaCl, 25 mM imidazole, and 3 mM 3-mercaptoethanol. Following the batch wash Ni-NTA resin was loaded onto a gravity column and His-tagged protein was eluted with 6 bed volumes of 10 mM Tris/HCl pH 8.0, 200 mM NaCl, 500 mM imidazole, and 3 mM (3-mercaptoethanol. Eluted protein was dialyzed overnight against 10 mM Tris/HCl pH 8.0, 200 mM NaCl, and 1 mM DTT and the 6×-His-8×-Arg-SUMO-tag was cleaved using a 20:1 molar ratio of protein:3C protease. The protein was purified by anion exchange chromatography on a HiTrapQ or MonoQ 10/100 GL column (GE Healthcare) via a linear NaCl gradient and twice by size exclusion chromatography using a Superdex S200 26/60 column (GE Healthcare) run in 10 mM Tris/HCl pH 8.0, 200 mM NaCl, 10 mM MgCl2, 1 mM DTT. Proteins were concentrated to −12 mg/mL for crystallization and flash frozen for storage.
Biochemical Assay for Activation of Pyruvate Kinase R
Activation of pyruvate kinase R (PKR) and pyruvate kinase M2 (PKM2) were measured using a luminescence based measurement of ATP generation and the Kinase-Glo luminescent kinase reagent kit.

T1 sequence (P30613 14-574): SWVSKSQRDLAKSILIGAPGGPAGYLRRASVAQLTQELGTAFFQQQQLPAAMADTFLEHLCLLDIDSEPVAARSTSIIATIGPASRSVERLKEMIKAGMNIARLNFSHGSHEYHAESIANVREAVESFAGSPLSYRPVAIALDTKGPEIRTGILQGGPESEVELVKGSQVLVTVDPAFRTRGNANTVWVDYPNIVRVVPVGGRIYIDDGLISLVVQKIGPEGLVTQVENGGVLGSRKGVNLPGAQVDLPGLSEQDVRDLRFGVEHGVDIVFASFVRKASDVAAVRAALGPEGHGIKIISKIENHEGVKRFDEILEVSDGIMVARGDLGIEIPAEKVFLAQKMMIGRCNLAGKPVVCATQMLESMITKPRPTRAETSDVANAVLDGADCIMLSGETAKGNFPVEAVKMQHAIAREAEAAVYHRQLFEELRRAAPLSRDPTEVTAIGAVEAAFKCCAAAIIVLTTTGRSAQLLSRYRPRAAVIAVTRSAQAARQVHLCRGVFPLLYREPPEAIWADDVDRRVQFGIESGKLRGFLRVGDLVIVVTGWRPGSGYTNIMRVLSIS

| AC50 [nM] | Emax [%] | SMILES |
| --- | --- | --- |
| 189 | 96 | O=C(NCc1nnnn1-c1ccc(Cl)cc1)NCc1nnnn1-c1ccc(Cl)cc1 [Compound 1, 1,3-bis({[1-(4-chlorophenyl)-1H-1,2,3,4-tetrazol-5-yl]methyl})urea] |
| 530 | 69 | O=C(NCc1nnnn1-c1cccc(Cl)c1)NCc1nnnn1-c1cccc(Cl)c1 [Compound 2, 1,3-bis({[1-(3-chlorophenyl)-1H-1,2,3,4-tetrazol-5-yl]methyl})urea] |
| 6000 | 53 | O=C1N(Cc2nnnn2-c2ccc(Cl)cc2)CCCN1Cc1nnnn1-c1ccc(Cl)cc1 [Compound 3, 1,3-bis({[1-(4-chlorophenyl)-1H-1,2,3,4-tetrazol-5-yl]methyl})-1,3-diazinan-2-one] |
| 1200 | 80 | O=C1N(Cc2nnnn2-c2ccc(Cl)c(F)c2)CCCN1Cc1nnnn1-c1ccc(Cl)c(F)c1 [Compound 4, 1,3-bis({[1-(4-chloro-3-fluorophenyl)-1H-1,2,3,4-tetrazol-5-yl]methyl})-1,3-diazinan-2-one] |
| 5.4 | 33 | O=C1N(Cc2ncnn2-c2ccc(Cl)c(F)c2)CCCN1Cc1ncnn1-c1ccc(Cl)c(F)c1 [Compound 6, 1,3-bis({[1-(4-chloro-3-fluorophenyl)-1H-1,2,4-triazol-5-yl]methyl})-1,3-diazinan-2-one] |
| 37 | 85 | Cc1nc(CNC(=O)NCc2ncnn2Cc2ccccc2)n(-c2ccc(Cl)c(F)c2)n1 [Compound 18, 1-[(1-benzyl-1H-1,2,4-triazol-5-yl)methyl]-3-{[1-(4-chloro-3-fluorophenyl)-3-methyl-1H-1,2,4-triazol-5-yl]methyl}urea] |
| 51 | 97 | Cc1nc(CNC(=O)NCc2ncnn2Cc2ccc(F)cc2)n(-c2ccc(Cl)c(F)c2)n1 [Compound 20, 3-{[1-(4-chloro-3-fluorophenyl)-3-methyl-1H-1,2,4-triazol-5-yl]methyl}-1-({1-[(4-fluorophenyl)methyl]-1H-1,2,4-triazol-5-yl}methyl)urea] |
| 33 | 83 | Cc1nc(CNC(=O)N(C)Cc2ncnn2-c2ccc3scnc3c2)n(-c2ccc(Cl)c(F)c2)n1 [Compound 22, 1-{[1-(1,3-benzothiazol-5-yl)-1H-1,2,4-triazol-5-yl]methyl}-3-{[1-(4-chloro-3-fluorophenyl)-3-methyl-1H-1,2,4-triazol-5-yl]methyl}-1-methylurea] |
| 24 | 75 | Cc1nc(CNC(=O)NCc2ncnn2-c2ccc3c(c2)OCC3)n(-c2ccc(Cl)c(F)c2)n1 [Compound 24, 3-{[1-(4-chloro-3-fluorophenyl)-3-methyl-1H-1,2,4-triazol-5-yl]methyl}-1-{[1-(2,3-dihydro-1-benzofuran-6-yl)-1H-1,2,4-triazol-5-yl]methyl}urea] |
| 2500 | 80 | O=C(NCc1nnnn1-c1ccc(Cl)cc1F)NCc1nnnn1-c1ccc(Cl)cc1F [Compound 25, 1,3-bis({[1-(4-chloro-2-fluorophenyl)-1H-1,2,3,4-tetrazol-5-yl]methyl})urea] |
| 73 | 93 | CN(Cc1nnnn1-c1ccc(Cl)c(F)c1)C(=O)NCc1nnnn1-c1ccc(Cl)c(F)c1 [Compound 26, 1,3-bis({[1-(4-chloro-3-fluorophenyl)-1H-1,2,3,4-tetrazol-5-yl]methyl})-1-methylurea] |
| 5.4 | 33 | CN(Cc1ncnn1-c1ccc(Cl)c(F)c1)C(=O)NCc1ncnn1-c1ccc(Cl)c(F)c1 [Compound 27, 1,3-bis({[1-(4-chloro-3-fluorophenyl)-1H-1,2,4-triazol-5-yl]methyl})-1-methylurea] |

The remaining lines, values behind:

| SMILES | AC50 [nM] | Emax [%] |
| --- | --- | --- |
| O=C(NCc1ncnn1-c1ccc(Cl)c(F)c1)NCc1ncnn1C1CCOCC1 [Compound 5, 3-{[1-(4-chloro-3-fluorophenyl)-1H-1,2,4-triazol-5-yl]methyl}-1-{[1-(oxan-4-yl)-1H-1,2,4-triazol-5-yl]methyl}urea] | 420 | 47 |
| O=C(NCc1ncnn1CC1CCOCC1)NCc1ncnn1-c1ccc(Cl)c(F)c1 [Compound 7, 3-{[1-(4-chloro-3-fluorophenyl)-1H-1,2,4-triazol-5-yl]methyl}-1-({1-[(oxan-4-yl)methyl]-1H-1,2,4-triazol-5-yl}methyl)urea] | 44 | 46 |
| CCN(Cc1ncnn1-c1ccc(Cl)c(F)c1)C(=O)NCc1ncnn1CC1CCOCC1 [Compound 8, 3-{[1-(4-chloro-3-fluorophenyl)-1H-1,2,4-triazol-5-yl]methyl}-3-ethyl-1-({1-[(oxan-4-yl)methyl]-1H-1,2,4-triazol-5-yl}methyl)urea] | 320 | 59 |
| CCN(Cc1ncnn1CC1CCOCC1)C(=O)NCc1ncnn1-c1ccc(Cl)c(F)c1 [Compound 9, 3-{[1-(4-chloro-3-fluorophenyl)-1H-1,2,4-triazol-5-yl]methyl}-1-ethyl-1-({1-[(oxan-4-yl)methyl]-1H-1,2,4-triazol-5-yl}methyl)urea] | 120 | 64 |
| Cc1nc(CNC(=O)NCc2ncnn2CC2CCOCC2)n(-c2ccc(Cl)c(F)c2)n1 [Compound 10, 3-{[1-(4-chloro-3-fluorophenyl)-3-methyl-1H-1,2,4-triazol-5-yl]methyl}-1-({1-[(oxan-4-yl)methyl]-1H-1,2,4-triazol-5-yl}methyl)urea] | 80 | 74 |
| CC1(Cn2ncnc2CNC(=O)NCc2ncnn2-c2ccc(Cl)c(F)c2)CCOCC1 [Compound 11, 3-{[1-(4-chloro-3-fluorophenyl)-1H-1,2,4-triazol-5-yl]methyl}-1-({1-[(4-methyloxan-4-yl)methyl]-1H-1,2,4-triazol-5-yl}methyl)urea] | 88 | 49 |
| Cc1nc(CNC(=O)NCc2ncnn2CC2(C)CCOCC2)n(-c2ccc(Cl)c(F)c2)n1 [Compound 12, 3-{[1-(4-chloro-3-fluorophenyl)-3-methyl-1H-1,2,4-triazol-5-yl]methyl}-1-({1-[(4-methyloxan-4-yl)methyl]-1H-1,2,4-triazol-5-yl}methyl)urea] | 180 | 89 |
| CC1(C)CC(Cn2ncnc2CNC(=O)NCc2ncnn2-c2ccc(Cl)c(F)c2)CCO1 (centres unmarked) [Compound 13, 3-{[1-(4-chloro-3-fluorophenyl)-1H-1,2,4-triazol-5-yl]methyl}-1-({1-[(2,2-dimethyloxan-4-yl)methyl]-1H-1,2,4-triazol-5-yl}methyl)urea] | 1000 | 55 |
| Cc1nc(CNC(=O)NCc2ncnn2CC2CCOC(C)(C)C2)n(-c2ccc(Cl)c(F)c2)n1 (centres unmarked) [Compound 14, 3-{[1-(4-chloro-3-fluorophenyl)-3-methyl-1H-1,2,4-triazol-5-yl]methyl}-1-({1-[(2,2-dimethyloxan-4-yl)methyl]-1H-1,2,4-triazol-5-yl}methyl)urea] | 1400 | 84 |
| O=C(NCc1ncnn1CC1CCOCC1)NCc1ncnn1-c1ccc2cccnc2c1 [Compound 15, 3-({1-[(oxan-4-yl)methyl]-1H-1,2,4-triazol-5-yl}methyl)-1-{[1-(quinolin-7-yl)-1H-1,2,4-triazol-5-yl]methyl}urea] | 310 | 57 |
| Cc1nc(CNC(=O)NCc2ncnn2CC2CCCCC2)n(-c2ccc(Cl)c(F)c2)n1 [Compound 16, 3-{[1-(4-chloro-3-fluorophenyl)-3-methyl-1H-1,2,4-triazol-5-yl]methyl}-1-{[1-(cyclohexylmethyl)-1H-1,2,4-triazol-5-yl]methyl}urea] | 55 | 93 |
| Cc1nc(CNC(=O)NCc2ncnn2-c2ccc3scnc3c2)n(-c2ccc(Cl)c(F)c2)n1 [Compound 17, 1-{[1-(1,3-benzothiazol-5-yl)-1H-1,2,4-triazol-5-yl]methyl}-3-{[1-(4-chloro-3-fluorophenyl)-3-methyl-1H-1,2,4-triazol-5-yl]methyl}urea] | 13 | 82 |
| Cc1nc(CNC(=O)NCc2ncnn2CC2(O)CCCCC2)n(-c2ccc(Cl)c(F)c2)n1 [Compound 23, 3-{[1-(4-chloro-3-fluorophenyl)-3-methyl-1H-1,2,4-triazol-5-yl]methyl}-1-({1-[(1-hydroxycyclohexyl)methyl]-1H-1,2,4-triazol-5-yl}methyl)urea] | 230 | 72 |
